Tests used:
[1] = system: KCC2 expression; experiment: Western blot of KCC2 in cultured WT human neurons; format: cell-based
[2] = system: KCC2 expression; experiment: Western blot of KCC2 in organotypic mouse brain slices; format: cell-based; conditions: organotypic neonatal mouse brain slices, treated 7 days, vs DMSO, MeBIO or medium-only control
[3] = system: human RTT neurons; experiment: mEPSC whole-cell patch-clamp recording in cultured human RTT neurons; format: cell-based; conditions: cultured human RTT neurons
Text: (§1) Moreover, a reduction in the number or the strength of excitatory glutamatergic synapses in RTT neurons has been observed in postmortem RTT patient brain samples (30), mouse models of RTT (53), and human stem cell-derived RTT neurons (54). Electrophysiology recording was utilized to assess whether KEECs could rescue the deficits in EGABA and excitatory synaptic transmission of RTT neurons. […] We further investigated whether the beneficial effect of KEECs is a direct result of the increases in neuronal KCC2 gene expression. […] Deficits in a number of morphological measurements, including nuclei size and neurite complexity and branching, are hallmarks of RTT neurons (54-56). […] To validate the morphological measurements, electrophysiological measurements of the neuronal membrane capacitance (Cm), an indicator of neuronal cell size (57) that is reduced in RTT neurons, were conducted.
(§2) Functionally mature human neuron cultures were obtained by seeding human WT or isogenic RTT NPCs on a layer of primary mouse astrocyte culture as previously described (57). In the cultured WT human neurons, KCC2 expression reaches mature level between 2-3 months (7). We therefore treated the WT or RTT human neurons 8-12 weeks in culture, with compounds for a duration of two weeks before conducting whole-cell patch-clamp recording. The extracellular bath solution, that perfused the recording chamber, consists of (in mM): 120 NaCl, 30 glucose, 25 HEPES, 5 KCl, 2 CaCl2, 1 MgCl2. The pH was adjusted to 7.3 with NaOH. The high-chloride internal pipette solution consists of (in mM): 147 KCl, 5 Na-phosphocreatine, 2 EGTA, 10 HEPES, 4 MgATP, and 0.5 Na2GTP; the pH 7.3 was adjusted with KOH. To record mini EPSC, the membrane potential was held at −70 mV, and 0.5 μM of TTX and 50 μM Picrotoxin were applied with bath solution to block action potential and GABAergic synaptic transmission.
To evoke GABA response, a pipette filled with 100 μM GABA solution was positioned 5-10 μm away from the neuronal cell body. Air pulses at the pressure of 10 p.s.i. and duration of 100 ms were generated with a Picrospritzer (Parker Instrumentation) to puff GABA solution onto neuronal cell body. Neuronal response to GABA puffs were recorded at different membrane holding potentials from −90 mV to +30 mV, and the EGABA values were calculated with linear regression. Electrophysiological signals were recorded with Multiclamp 700A patch-clamp amplifier and data were collected with Clamp 9 software (Molecular Devices, Palo Alto, CA), sampled at 10 kHz and filtered at 1 KHz. Off-line data analyses of mEPSC synaptic events were performed with MiniAnalysis software (Synaptosoft, Decator, GA). All experiments were performed at room temperature. A sample size of 5-8 neurons was used for EGABA measurements, while a sample size of 14-19 neurons was used for mEPSC measurements. All data were presented as mean±SEM. ANOVA test followed by the Bonferroni correction were used for statistical analysis. The Kolmogorov-Smirnov test was employed to compare the cumulative distribution between two datasets.

[4] = system: human RTT neurons; experiment: Membrane capacitance (Cm) of cultured human RTT neurons; format: cell-based; conditions: cultured human RTT neurons; vs DMSO or MeBIO control
Text: as §1, §2

[5] = system: KCC2 expression (KCC2-2A-luciferase reporter); experiment: KCC2-2A-luciferase reporter compound screening with RTT KCC2 reporter neurons; format: cell-based, human; conditions: MECP2-null RTT human KCC2 reporter neurons; LINCS, SMART, ICCB libraries; Luc/CTG normalized to in-plate DMSO; hit = B score >3
Method: The RTT KCC2-2A-luciferase reporter neurons were treated with the test compounds from the LINCS kinase inhibitor library and IRSF SMART compound library and incubated before being lysed. The cell lysate was divided into two parts to measure luciferase signal (KCC2 translation) and Cell-Titer Glow (CTG, amount of ATP). The luciferase signal was normalized to CTG for each well, and the Luc/CTG ratio was normalized to the in-plate DMSO negative control to calculate fold change ratio.
Additional screens for reporter activation in the MECP2-null RTT human KCC2 reporter neurons (isogenic to the WT reporter cells used above) were performed with the LINCS and SMART libraries as well as the ICCB known bioactive library and identified hits as compounds with B score >3.
The cells were dissociated with Accutase and resuspended in 10 ml neuronal differentiation medium to count cells. The cells were then diluted to the final density of 200,000 to 500,000 cells/ml. Matrigel was added to the cell suspension at a dilution ratio of 1:300 to promote cell adhesion after plating. AraC was added to cell suspension at the concentration of 2 μM to inhibit cell division. The cells were plated into 96-well plates with an automated cell seeding machine using the following protocol: The neuron flask was washed with PBS. The neurons were digested off the plate with Accutase for 30 minutes at 37° C. Next, the dissociated cells were collected and spun down at 750 rpm for 5 minutes. The cell pellet was dissociated by gentle trituration with P1000 pipet and the cells were resuspended with 10 ml of neuronal medium. Then, the cells were filtered through a 40 μm cell strainer (Falcon) to get rid of clumps. The resulting single-cell suspension was counted using a Countess automated cell counter (Invitrogen Countess Automated Cell Counter, Catalog no. C10227). The neurons were resuspended with neuronal medium to 10× of the destination density (100,000 cells to 400,000 cells per ml). The cells were plated with a multichannel pipette, or proceeded to the machine-plating protocol described below:
The day after cell seeding, small molecule compounds from the IRSF (International Rett Syndrome Foundation) library were prepared at a concentration of 1 mM and dispensed into a blank V-bottomed test plates at 2 μl per well. Compound solvent DMSO was included in every plate as control. Using a liquid handling robot, about 80 μl of culture medium were discarded. Neuronal medium in the volume of 200 μl was added to the V-bottom test plate that contained 2 μl of 1 mM compounds, and mixed with compounds by pipetting up-and-down 3 times. The medium that contained the 10 μM compounds was then applied to the neuronal cell culture and incubated for 2 weeks before cell lysis and luciferase assay were performed.
(§3) The cells were dissociated with Accutase, resuspended in 10 ml neuronal differentiation medium to count cells. the final cell seeding density was 20 k-40 k cells per well for 96-well plates, and ˜10 k cells per well for 384-well plates. Matrigel was added to the cell suspension at a dilution ratio of 1:300 to promote cell adhesion after plating. AraC were added to the cell suspension at the concentration of 0.5 μM to inhibit astroglial cell division. The cells were dispensed into 96-well or 384-well plates (Coming) using a BioTek EL406 plate dispenser. […] The neurons were incubated with the compounds at 37° C./5% CO2 for a week before the luciferase assay.
The cells used for luciferase assay were KCC2 reporter neurons differentiated for 4 weeks, and treated with drug in 96-well format for 2 weeks. Cell density was between 20 k-40 k cells per well.
On the day of the luciferase assay, the cells were washed with PBS for two times, and 100 μl of cell lysis buffer was applied to the washed cells. The cell plates were transferred to a rocker to shake for 10 minutes in order to fully lyse the cells.

[6] = system: KCC2 expression; experiment: Western blot of KCC2 in cultured human RTT neurons; format: cell-based; conditions: cultured human RTT neurons; Western blot
Method: Protein samples were collected from cultured brain slices or cultured neurons in 12-well format with RIPA lysis buffer (in mM: 150 NaCl, 25 Tris-HCl, 1 EDTA, 1% NP-40, 1% sodium deoxycholate, 0.1% SDS, with protein kinase inhibitor and protease inhibitor, pH adjusted to 7.6). A sonication step was applied to homogenize tissue and extract protein, followed by a 10 minute centrifugation at 4° C. […] The PVDF membrane was blocked for 30 minutes with 5% milk in TBS+0.1% Tween 20 (TBST), and incubated overnight at 4° C. with primary antibodies diluted in TBST-milk at the following concentrations: KCC2 (1:2000, Millipore), NKCC1 (1:1000, Iowa Hybridoma bank), α-Tubulin (1:4000, Abcam), GAPDH (1:3000, Abcam), Actin (1:2000, Sigma Aldrich #A2066). The membrane was rinsed with TBST three times to wash off excess antibodies, and then incubated in secondary HRP antibodies in TBST-milk at 1:5000 concentration.
The PVDF membrane was then stripped using the Re-blot plus strong solution (Millipore), and re-immunoblotted for NKCC1 (˜150 kDa) to acquire KCC2/NKCC1 ratio. The area and intensity of protein signal was determined using ImageJ. The relative KCC2 and NKCC1 expression were calculated by normalizing protein signal to GAPDH or Tubulin loading control.

[7] = system: immature mouse neurons; experiment: Gramicidin-perforated patch recording of EGABA in DIV6-7 immature mouse neurons; format: cell-based
[8] = system: KCC2 expression (KCC2-2A-luciferase reporter); experiment: KCC2-2A-luciferase reporter compound screening with wild type KCC2 reporter neurons; format: cell-based; conditions: WT human KCC2 reporter neurons; LINCS 0.5 μM, IRSF/SMART and ICCB 10 μM, one week; Luc/CTG normalized to in-plate DMSO; hit = B score >3
Text: In addition, CRISPR/Cas9 genome editing technology was utilized to insert a 2A-luciferase reporter gene directly before the stop codon of the endogenous KCC2 locus in human ES cells, thus creating wild type (WT) cells isogenic to the MECP2-null RTT human KCC2 reporter neurons. KCC2 expression reporter human neurons were differentiated from the gene-targeted ES cells and utilized as the substrate for unbiased compound screening (FIG. 6A; see also FIG. 1A).
Gene-targeted KCC2 reporter cells were used in a HTS pipeline to screen for small molecule compounds that enhance KCC2 gene expression (FIG. 1B; note that reporter neurons were adapted to 384 well format for some screens, and the same workflow was used both for WT KCC2 reporter neurons and RTT KCC2 reporter neurons). Six replicate screens were performed in WT KCC2 reporter neurons using the LINCS and SMART libraries as well as the ICCB known bioactive library (FIG. 6B).
as §3
For some screens, on the day of the luciferase assay, the cells were washed with PBS three times using a BioTek EL406 plate washer. Cell lysis buffer (Promega, E1941, 1:5 diluted with water) was added at a volume of 100 μl per well for 96-well plates and 30 μl per well for 384-well plates, and incubated at room temperature for 10 minutes to lyse the cells. A fraction of the cell lysate (30 ul for 96-well, 5 ul for 384-well) was transferred to a new white, opaque plate and Cell Titer-Glo (CTG, Promega, G7572, diluted 2:5 in water) was added and incubated for 20 minutes at room temperature. CTG measures cellular ATP levels as a surrogate for cell viability. The reporter luciferase signal was assayed in the original source plate using Bright-Glo reagent per the manufacturer's protocol (Promega, E1501, 10 ul for 96-well plates, 3 ul for 384-well plates). Assay readouts were performed on a Tecan M1000 Infinite plate reader. For data analysis, the luciferase signal was normalized to the CTG signal to control for number of live cells per well. The Luc/CTG ratio data were then normalized to the in-plate DMSO control to calculate the signal induction fold change. Screening data were processed with CellHTS2 software package to calculate B-score (94)

SMILES: CN1C(=O)/C(=C2\Nc3ccccc3\C2=N/O)c2ccc(Br)cc21 [MeBIO]
- KCC2 expression ([1]; cultured WT human neurons (WIBR1), Western blot): failed to activate KCC2 expression
- KCC2 protein level [2]: does not alter KCC2 expression
- frequency of mEPSCs [3]: failed to rescue synaptic deficits in RTT neurons
- membrane capacitance (Cm) [4]: failed to change Cm

SMILES: Nc1cccc(-c2cc3c(Oc4cccc(O)c4)ncnc3[nH]2)c1 [TWS-119, 3-[6-(3-Amino-phenyl)-7H-pyrrolo[2,3,-d]pyrimidin-4-yloxy]-phenol]
- B Score [5]: 3.64
- KCC2 expression [6]: significant increase in KCC2 expression
- increase of KCC2 expression ([1]; WT neurons, 0.03 μM): more than two-fold
- EGABA after treatment ([7]; DIV6-7 immature mouse neurons, untreated about −50 mV): about −70 mV
- significant hyperpolarizing shift in EGABA ([7]; DIV6 cultured immature mouse neurons): induces significant hyperpolarizing shift in EGABA

SMILES: COCc1nc2c([nH]1)c(=O)n(C)c(=O)n2CC(C)C [8-methoxymethyl-IBMX, 8-(Methoxymethyl)-1-methyl-3-(2-methylpropyl)-7H-purine-2,6-dione]
- B Score [8]: 4.8
- B Score [5]: 4.8

SMILES: COC1=CC(=O)O[C@@H](/C=C/c2ccc3c(c2)OCO3)C1 [Methysticin, (2R)-2-[(E)-2-(1,3-Benzodioxol-5-yl)ethenyl]-4-methoxy-2,3-dihydropyran-6-one]
- B Score [8]: 7.17
- B Score [5]: 7.17

SMILES: O=C1Nc2ccccc2/C1=C1/Nc2ccccc2C1=O [Indirubin, (3Z)-3-(3-Oxo-1,3-dihydro-2H-indol-2-ylidene)-1,3-dihydro-2H-indol-2-one]
- B Score [8]: 3.73
- B Score [5]: 3.73
